Reference: patent US20230278995A1, “1,3,4-OXADIAZOLE DERIVATIVE COMPOUNDS AS HISTONE DEACETYLASE 6 INHIBITOR, AND THE PHARMACEUTICAL COMPOSITION COMPRISING THE SAME” (CHONG KUN DANG PHARMACEUTICAL CORP., priority 2020, published 2023)

Columns and labels:
human recombinant HDAC1 = biological target: T1, human recombinant HDAC1 (Homo sapiens, UniProt Q13547); assay: HDAC enzyme activity inhibition assay (HDAC Fluorimetric Drug Discovery Kit), HDAC1; type: biochemical; conditions: human recombinant HDAC1, Fluor de Lys-SIRT1 substrate, 30° C. 60 minutes
T1 construct: purchased Enzo Life Sciences, Inc. BML-SE456
Outline: (§1)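 Recombinant human HDAC1 or HDAC6 (0.3 μg) reacted with 10 μM Fluor de Lys-SIRT1 substrate at 30 °C for 60 min. Developer added for 30 min, then fluorescence read at Ex 360/Em 460.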

human recombinant HDAC6 = biological target: T2, human recombinant HDAC6 (Homo sapiens, UniProt Q9UBN7); assay: HDAC enzyme activity inhibition assay (HDAC Fluorimetric Drug Discovery Kit), HDAC6; type: biochemical; conditions: for HDAC6 selectivity (fold): HDAC1 vs HDAC6; for IC50: human recombinant HDAC6, same protocol as HDAC1
T2 construct: purchased Calbiochem Inc. 382180
T2 sequence (Q9UBN7 1-1215): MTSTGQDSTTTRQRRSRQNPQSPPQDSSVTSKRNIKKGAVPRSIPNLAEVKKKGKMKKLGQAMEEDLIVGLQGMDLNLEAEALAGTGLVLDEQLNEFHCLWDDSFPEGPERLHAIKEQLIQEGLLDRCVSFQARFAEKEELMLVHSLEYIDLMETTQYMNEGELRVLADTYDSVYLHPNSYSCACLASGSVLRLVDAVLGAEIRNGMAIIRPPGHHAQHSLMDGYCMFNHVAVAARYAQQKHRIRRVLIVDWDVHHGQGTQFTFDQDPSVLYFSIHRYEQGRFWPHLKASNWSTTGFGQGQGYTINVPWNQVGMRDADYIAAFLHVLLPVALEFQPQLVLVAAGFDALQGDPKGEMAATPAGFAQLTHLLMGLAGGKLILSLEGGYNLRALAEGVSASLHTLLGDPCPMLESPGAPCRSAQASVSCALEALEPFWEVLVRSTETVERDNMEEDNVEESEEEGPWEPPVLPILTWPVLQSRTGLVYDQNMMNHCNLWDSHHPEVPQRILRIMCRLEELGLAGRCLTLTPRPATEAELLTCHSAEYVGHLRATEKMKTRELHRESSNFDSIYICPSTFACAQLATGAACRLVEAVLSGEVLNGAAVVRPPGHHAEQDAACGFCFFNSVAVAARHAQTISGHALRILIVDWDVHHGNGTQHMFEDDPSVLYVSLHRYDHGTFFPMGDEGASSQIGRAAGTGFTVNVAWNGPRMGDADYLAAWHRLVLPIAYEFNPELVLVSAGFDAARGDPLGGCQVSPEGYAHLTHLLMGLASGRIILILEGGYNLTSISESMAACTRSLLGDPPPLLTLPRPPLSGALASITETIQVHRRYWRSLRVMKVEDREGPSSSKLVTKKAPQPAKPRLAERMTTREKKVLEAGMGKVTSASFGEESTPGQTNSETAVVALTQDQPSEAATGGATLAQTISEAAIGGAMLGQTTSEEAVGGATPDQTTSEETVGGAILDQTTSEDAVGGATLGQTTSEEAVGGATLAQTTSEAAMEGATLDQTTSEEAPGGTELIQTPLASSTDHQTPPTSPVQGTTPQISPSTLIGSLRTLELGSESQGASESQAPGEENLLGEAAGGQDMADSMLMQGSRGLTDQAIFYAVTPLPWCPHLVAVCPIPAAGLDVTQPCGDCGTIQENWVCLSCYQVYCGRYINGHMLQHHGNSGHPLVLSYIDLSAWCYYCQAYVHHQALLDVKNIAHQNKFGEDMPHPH
Outline: as §1

T1 sequence (Q13547 whole entry): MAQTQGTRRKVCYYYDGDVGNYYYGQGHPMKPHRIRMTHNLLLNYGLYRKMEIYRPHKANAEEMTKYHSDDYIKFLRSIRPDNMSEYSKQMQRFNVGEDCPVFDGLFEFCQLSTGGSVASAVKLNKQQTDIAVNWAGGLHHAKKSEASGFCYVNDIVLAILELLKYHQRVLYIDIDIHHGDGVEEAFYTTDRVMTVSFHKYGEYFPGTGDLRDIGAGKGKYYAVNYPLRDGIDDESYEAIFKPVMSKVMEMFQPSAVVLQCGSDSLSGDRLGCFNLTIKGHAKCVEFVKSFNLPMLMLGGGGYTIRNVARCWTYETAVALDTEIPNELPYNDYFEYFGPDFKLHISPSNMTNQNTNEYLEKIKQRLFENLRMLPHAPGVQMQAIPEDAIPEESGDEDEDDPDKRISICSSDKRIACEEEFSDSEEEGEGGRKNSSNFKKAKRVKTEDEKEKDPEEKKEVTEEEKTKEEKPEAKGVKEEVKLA

Question: How did the IC50 (human recombinant HDAC1) turn out when `O=C(N(Cc1ccc(-c2nnc(C(F)F)o2)cn1)c1cccc(F)c1)C1(F)CN(C2CCN(C3CCOCC3)CC2)C1` [Compound 3410, N-((5-(5-(difluoromethyl)-1,3,4-oxadiazol-2-yl)pyridin-2-yl)methyl)-3-fluoro-N-(3-fluorophenyl)-1-(1-(tetrahydro-2H-pyran-4-yl)piperidin-4-yl)azetidine-3-carboxamide] was run?
Answer: 34700 nM

Question: What about the “HDAC6 selectivity (fold)” value (human recombinant HDAC6) of the same molecule?
Answer: 1,343 fold

Question: What about the IC50 (human recombinant HDAC6) of the same molecule?
Answer: 25.8 nM

Question: Which IC50 (human recombinant HDAC1) does the source give for `O=C(C1CCCC1)N1CC(F)(C(=O)N(Cc2ccc(-c3nnc(C(F)F)o3)cn2)c2ccccc2)C1` [Compound 3160, 1-(cyclopentanecarbonyl)-N-((5-(5-(difluoromethyl)-1,3,4-oxadiazol-2-yl)pyridin-2-yl)methyl)-3-fluoro-N-phenylazetidine-3-carboxamide] here?
Answer: > 50000 nM

Question: And the “HDAC6 selectivity (fold)” value (human recombinant HDAC6)?
Answer: 1,466 fold

Question: And the IC50 (human recombinant HDAC6)?
Answer: 34.1 nM

Question: What does the source list for `CN(C)CCC(=O)N1CC(F)(C(=O)N(Cc2ccc(-c3nnc(C(F)F)o3)cn2)c2cccc(F)c2)C1` [Compound 3097, N-((5-(5-(difluoromethyl)-1,3,4-oxadiazol-2-yl)pyridin-2-yl)methyl)-1-(3-(dimethylamino)propanoyl)-3-fluoro-N-(3-fluorophenyl)azetidine-3-carboxamide]?
Answer: IC50 (human recombinant HDAC1): > 50000 nM; HDAC6 selectivity (fold) (human recombinant HDAC6): 1,612 fold; IC50 (human recombinant HDAC6): 31 nM

Question: What does the source list for `CC(C)CC(=O)N1CC(F)(C(=O)N(Cc2ccc(-c3nnc(C(F)F)o3)cn2)c2cccc(F)c2)C1` [Compound 3166, N-((5-(5-(difluoromethyl)-1,3,4-oxadiazol-2-yl)pyridin-2-yl)methyl)-3-fluoro-N-(3-fluorophenyl)-1-(3-methylbutanoyl)azetidine-3-carboxamide]?
Answer: IC50 (human recombinant HDAC1): > 50000 nM; HDAC6 selectivity (fold) (human recombinant HDAC6): 741 fold; IC50 (human recombinant HDAC6): 67.4 nM

Question: For `CC(C)N1CCC(F)(C(=O)N(Cc2ccc(-c3nnc(C(F)F)o3)cn2)c2cccc(F)c2)CC1` [Compound 2970, N-((5-(5-(difluoromethyl)-1,3,4-oxadiazol-2-yl)pyridin-2-yl)methyl)-4-fluoro-N-(3-fluorophenyl)-1-isopropylpiperidine-4-carboxamide], which IC50 (human recombinant HDAC1) is on record?
Answer: > 50000 nM

Question: What about the “HDAC6 selectivity (fold)” value (human recombinant HDAC6) of the same molecule?
Answer: 1,046 fold

Question: And the IC50 (human recombinant HDAC6)?
Answer: 47.8 nM

Question: With `O=C(N1CC(F)(C(=O)N(Cc2ccc(-c3nnc(C(F)F)o3)cc2F)c2ccccc2)C1)C(F)(F)F` [Compound 3435, N-(4-(5-(difluoromethyl)-1,3,4-oxadiazol-2-yl)-2-fluorobenzyl)-3-fluoro-N-phenyl-1-(2,2,2-trifluoroacetyl)azetidine-3-carboxamide] as the molecule, how does the IC50 (human recombinant HDAC1) read?
Answer: > 50000 nM

Question: What about the “HDAC6 selectivity (fold)” value (human recombinant HDAC6) of the same molecule?
Answer: 325 fold

Question: What about the IC50 (human recombinant HDAC6) of the same molecule?
Answer: 154 nM

Question: What does the source list for `CN1CC(F)(C(=O)N(Cc2ccc(-c3nnc(C(F)F)o3)cc2F)c2ccccc2)C1` [Compound 3429, N-(4-(5-(difluoromethyl)-1,3,4-oxadiazol-2-yl)-2-fluorobenzyl)-3-fluoro-1-methyl-N-phenylazetidine-3-carboxamide]?
Answer: IC50 (human recombinant HDAC1): 30900 nM; HDAC6 selectivity (fold) (human recombinant HDAC6): 421 fold; IC50 (human recombinant HDAC6): 73.4 nM

Question: For `CCN1CCC(F)(C(=O)N(Cc2ccc(-c3nnc(C(F)F)o3)cc2F)c2ccccc2)CC1` [Compound 2867, N-(4-(5-(difluoromethyl)-1,3,4-oxadiazol-2-yl)-2-fluorobenzyl)-1-ethyl-4-fluoro-N-phenylpiperidine-4-carboxamide], which IC50 (human recombinant HDAC1) is on record?
Answer: > 20000 nM

Question: What about the “HDAC6 selectivity (fold)” value (human recombinant HDAC6) of the same molecule?
Answer: 97 fold

Question: What about the IC50 (human recombinant HDAC6) of the same molecule?
Answer: 204 nM

Question: With `O=C(N(Cc1ccc(-c2nnc(C(F)F)o2)cn1)c1cccc(F)c1)C1(F)CN(C2CN(C3CCC3)C2)C1` [Compound 3394, 1′-cyclobutyl-N-((5-(5-(difluoromethyl)-1,3,4-oxadiazol-2-yl)pyridin-2-yl)methyl)-3-fluoro-N-(3-fluorophenyl)-[1,3′-biazetidine]-3-carboxamide] as the molecule, how does the IC50 (human recombinant HDAC1) read?
Answer: > 50000 nM

Question: And the “HDAC6 selectivity (fold)” value (human recombinant HDAC6)?
Answer: 1,886 fold

Question: And the IC50 (human recombinant HDAC6)?
Answer: 26.5 nM

Question: For `CCCN1CCC(N2CC(F)(C(=O)N(Cc3ccc(-c4nnc(C(F)F)o4)cn3)c3cccc(F)c3)C2)CC1` [Compound 3401, N-((5-(5-(difluoromethyl)-1,3,4-oxadiazol-2-yl)pyridin-2-yl)methyl)-3-fluoro-N-(3-fluorophenyl)-1-(1-propylpiperidin-4-yl)azetidine-3-carboxamide], which IC50 (human recombinant HDAC1) is on record?
Answer: 44500 nM

Question: What about the “HDAC6 selectivity (fold)” value (human recombinant HDAC6) of the same molecule?
Answer: 1,951 fold

Question: And the IC50 (human recombinant HDAC6)?
Answer: 22.8 nM

Question: `CC(C)N1CC(F)(C(=O)N(Cc2ccc(-c3nnc(C(F)F)o3)cc2F)c2ccccc2)C1` [Compound 3431, N-(4-(5-(difluoromethyl)-1,3,4-oxadiazol-2-yl)-2-fluorobenzyl)-3-fluoro-1-isopropyl-N-phenylazetidine-3-carboxamide] was tested. Which IC50 (human recombinant HDAC1) did it give?
Answer: > 50000 nM

Question: And the “HDAC6 selectivity (fold)” value (human recombinant HDAC6)?
Answer: 544 fold

Question: And the IC50 (human recombinant HDAC6)?
Answer: 91.8 nM

Question: What does the source list for `O=C(N(Cc1ccc(-c2nnc(C(F)F)o2)cn1)c1cccc(F)c1)C1(F)CN(C2CCCCC2)C1` [Compound 3053, 1-cyclohexyl-N-((5-(5-(difluoromethyl)-1,3,4-oxadiazol-2-yl)pyridin-2-yl)methyl)-3-fluoro-N-(3-fluorophenyl)azetidine-3-carboxamide]?
Answer: IC50 (human recombinant HDAC1): > 50000 nM; HDAC6 selectivity (fold) (human recombinant HDAC6): 668 fold; IC50 (human recombinant HDAC6): 74.8 nM

Question: Which IC50 (human recombinant HDAC1) does the source give for `CC(C)CN1CC(N2CC(F)(C(=O)N(Cc3ccc(-c4nnc(C(F)F)o4)cn3)c3cccc(F)c3)C2)C1` [Compound 3223, N-((5-(5-(difluoromethyl)-1,3,4-oxadiazol-2-yl)pyridin-2-yl)methyl)-3-fluoro-N-(3-fluorophenyl)-1′-isobutyl-[1,3′-biazetidine]-3-carboxamide] here?
Answer: > 50000 nM

Question: And the “HDAC6 selectivity (fold)” value (human recombinant HDAC6)?
Answer: 1,424 fold

Question: What about the IC50 (human recombinant HDAC6) of the same molecule?
Answer: 35.1 nM

Question: With `CCN1CCC(N2CC(F)(C(=O)N(Cc3ccc(-c4nnc(C(F)F)o4)cn3)c3ccccc3)C2)CC1` [Compound 3111, N-((5-(5-(difluoromethyl)-1,3,4-oxadiazol-2-yl)pyridin-2-yl)methyl)-1-(1-ethylpiperidin-4-yl)-3-fluoro-N-phenylazetidine-3-carboxamide] as the molecule, how does the IC50 (human recombinant HDAC1) read?
Answer: > 50000 nM

Question: And the “HDAC6 selectivity (fold)” value (human recombinant HDAC6)?
Answer: 931 fold

Question: What about the IC50 (human recombinant HDAC6) of the same molecule?
Answer: 53.7 nM

Question: How did the IC50 (human recombinant HDAC1) turn out when `O=C(N(Cc1ccc(-c2nnc(C(F)F)o2)cn1)c1cccc(F)c1)C1(F)CN(C2CCC(F)(F)CC2)C1` [Compound 3096, 1-(4,4-difluorocyclohexyl)-N-((5-(5-(difluoromethyl)-1,3,4-oxadiazol-2-yl)pyridin-2-yl)methyl)-3-fluoro-N-(3-fluorophenyl)azetidine-3-carboxamide] was run?
Answer: > 50000 nM

Question: What about the “HDAC6 selectivity (fold)” value (human recombinant HDAC6) of the same molecule?
Answer: 1,385 fold

Question: And the IC50 (human recombinant HDAC6)?
Answer: 36.1 nM

Question: Which results are given for `O=C(N(Cc1ccc(-c2nnc(C(F)F)o2)cn1)c1ccccc1)C1(F)CN(CC2CCCCC2)C1` [Compound 3156, 1-(cyclohexylmethyl)-N-((5-(5-(difluoromethyl)-1,3,4-oxadiazol-2-yl)pyridin-2-yl)methyl)-3-fluoro-N-phenylazetidine-3-carboxamide]?
Answer: IC50 (human recombinant HDAC1): > 50000 nM; HDAC6 selectivity (fold) (human recombinant HDAC6): 649 fold; IC50 (human recombinant HDAC6): 77 nM

Question: What does the source list for `O=C(N(Cc1ccc(-c2nnc(C(F)F)o2)cn1)c1cccc(F)c1)C1(F)CN(C2CCC2)C1` [Compound 3049, 1-cyclobutyl-N-((5-(5-(difluoromethyl)-1,3,4-oxadiazol-2-yl)pyridin-2-yl)methyl)-3-fluoro-N-(3-fluorophenyl)azetidine-3-carboxamide]?
Answer: IC50 (human recombinant HDAC1): 21600 nM; HDAC6 selectivity (fold) (human recombinant HDAC6): 392 fold; IC50 (human recombinant HDAC6): 55 nM

Question: What does the source list for `CN(C)CCC(=O)N1CC(F)(C(=O)N(Cc2ccc(-c3nnc(C(F)F)o3)cn2)c2ccccc2)C1` [Compound 3006, N-((5-(5-(difluoromethyl)-1,3,4-oxadiazol-2-yl)pyridin-2-yl)methyl)-1-(3-(dimethylamino)propanoyl)-3-fluoro-N-phenylazetidine-3-carboxamide]?
Answer: IC50 (human recombinant HDAC1): > 50000 nM; HDAC6 selectivity (fold) (human recombinant HDAC6): 2,032 fold; IC50 (human recombinant HDAC6): 24.6 nM

Question: For `CCN1CCC(F)(C(=O)N(Cc2ccc(-c3nnc(C(F)F)o3)cn2)c2cccc(F)c2)CC1` [Compound 3443, N-((5-(5-(difluoromethyl)-1,3,4-oxadiazol-2-yl)pyridin-2-yl)methyl)-1-ethyl-4-fluoro N-(3-fluorophenyl)piperidine-4-carboxamide], which IC50 (human recombinant HDAC1) is on record?
Answer: > 50000 nM

Question: What about the “HDAC6 selectivity (fold)” value (human recombinant HDAC6) of the same molecule?
Answer: 967 fold

Question: And the IC50 (human recombinant HDAC6)?
Answer: 51.7 nM
